Consider six molecules from patent publication US7396830B2, “Piperazine amidines as antiviral agents” (priority 2005, dated 2008).

This test has as its system HIV-1. Put plainly: Single-round infectious HIV-1 luciferase reporter virus infection of HeLa CD4 cells. Type of test: cell-based. The conditions noted are these: Human immunodeficiency virus 1, HeLa, 72 h, read-out: EC50 Group from Table 1. The procedure: • Virus production—Human embryonic Kidney cell line, 293T, was propagated in Dulbecco's Modified Eagle Medium (Invitrogen, Carlsbad, Calif.) containing 10% fetal Bovine serum (FBS, Sigma, St. Louis, Mo.). • Virus infection—Human epithelial cell line, HeLa, expressing the HIV-1 receptor CD4 was propagated in Dulbecco's Modified Eagle Medium (Invitrogen, Carlsbad, Calif.) containing 10% fetal Bovine serum (FBS, Sigma, St. Louis , Mo.) and supplemented with 0.2 mg/mL Geneticin (Invitrogen, Carlsbad, Calif.). Virus-Single-round infectious reporter virus was produced by co-transfecting human embryonic Kidney 293 cells with an HIV-1 envelope DNA expression vector and a proviral cDNA containing an envelope deletion mutation and the luciferase reporter gene inserted in place of HIV-1 nef sequences (Chen et al, Ref. 41). Transfections were performed using lipofectAMINE PLUS reagent as described by the manufacturer (Invitrogen, Carlsbad, Calif.). Experiment • 1. HeLa CD4 cells were plated in 96 well plates at a cell density of 1×10^4 cells per well in 100 μl Dulbecco's Modified Eagle Medium containing 10% fetal Bovine serum and incubated overnight. • 2. Compound was added in a 2 μl dimethylsulfoxide solution, so that the final assay concentration would be ≦10 μM. • 3. 100 μl of single-round infectious reporter virus in Dulbecco's Modified Eagle Medium was then added to the plated cells and compound at an approximate multiplicity of infection (MOI) of 0.01, resulting in a final volume of 200 μl per well. • 4. Virally-infected cells were incubated at 37 degrees Celsius, in a CO2 incubator, and harvested 72 h after infection. • 5. Viral infection was monitored by measuring luciferase expression from viral DNA in the infected cells using a luciferase reporter gene assay kit, as described by the manufacturer (Roche Molecular Biochemicals, Indianapolis, Ind.). Infected cell supernatants were removed and 50 μl of lysis buffer was added per well. After 15 minutes, 50 μl of freshly-reconstituted luciferase assay reagent was added per well. Luciferase activity was then quantified by measuring luminescence using a Wallac microbeta scintillation counter. • 6. The percent inhibition for each compound was calculated by quantifying the level of luciferase expression in cells infected in the presence of each compound as a percentage of that observed for cells infected in the absence of compound and subtracting such a determined value from 100. • 7. An EC50 provides a method for comparing the antiviral potency of the compounds of this disclosure. The effective concentration for fifty percent inhibition (EC50) was calculated with the Microsoft Excel Xlfit curve fitting software. For each compound, curves were generated from percent inhibition calculated at 10 different concentrations by using a four paramenter logistic model (model 205). Table 1 is the key for the data in Table 2. Results
Consider `N=C(c1ccccc1)N1CCN(C(=O)C(=O)c2c[nH]c3c(-c4nccs4)ccc(F)c23)CC1` [AM-77], for which the EC50 (as a rule, the concentration that produces a half-maximal response) is less than 0.5 µM.
The result for `C[C@H]1CN(/C(=N/C#N)c2ccccc2)CCN1C(=O)C(=O)c1c[nH]c2c(-c3nccs3)ccc(F)c12` [AM-78] reads less than 0.5 µM; that for `C[C@H]1CN(/C(=N/C#N)c2ccccc2)CCN1C(=O)C(=O)c1c[nH]c2c(-c3ccccn3)ccc(F)c12` [AM-79], less than 0.5 µM.
The result for `C[C@H]1CN(/C(=N/C#N)c2ccccc2)CCN1C(=O)C(=O)c1c[nH]c2c(-c3cc4ccccc4s3)ccc(F)c12` [AM-80] reads less than 0.5 µM; that for `N#C/N=C(\c1ccccn1)N1CCN(C(=O)C(=O)c2c[nH]c3c(-n4ccnn4)ncc(F)c23)CC1` [AM-81], less than 0.5 µM; that for `COc1cnc(-n2cnc(C)n2)c2[nH]cc(C(=O)C(=O)N3CCN(/C(=N/C#N)c4ccccn4)CC3)c12` [AM-82], less than 0.5 µM.
